Source: patent US10722575B2, “Use of 1,3-diphenylprop-2-en-1-one derivatives for treating liver disorders” (GENFIT, priority 2009, dated 2020)

Assays:
[1] = test system: patients suffering from atherogenic dyslipidaemia and abdominal obesity; experiment: First pilot double-blind placebo-controlled randomized study, Cpd 29 80 mg/day, 28 days; assay type: in vivo, human; conditions: 80 mg/day oral
Experimental: 1-[4-methylthiophenyl]-3-[3,5-dimethyl-4-carboxydimethylmethyloxyphenyl]prop-2-en-1-one (Cpd 29 of WO 2004/005233) has been formulated as hard shell capsules containing 5, 10 or 20 mg of the compound. The compound (80 mg) was administered orally once daily for 28 days. The study has been performed in two parallel groups in double-blind conditions: placebo or Cpd 29 of WO 2004/005233.
The tolerability and safety of once-a-day administrations, as well as the efficacy in improving plasma lipids and glucose homeostasis compared with placebo, were evaluated in two pilot trials using relevant biochemical parameters. The data were used to calculate the percentage of change due to the compound when compared to the placebo after 28 days of treatment.
A first pilot, double-blind, placebo controlled, randomized study has been performed in patients suffering from atherogenic dyslipidaemia and abdominal obesity for assessing the tolerability and safety of once-a-day administrations of oral doses of Cpd 29 of WO 2004/005233 (at the dose of 80 mg/day), as well as the efficacy on plasma triglycerides and HDL-cholesterol (primary objectives).

[2] = test system: hApoE2 KI/PPARalpha KO mice; experiment: hApoE2 KI/PPARalpha KO mice on Western diet, 2 weeks, histological scores of liver steatosis and intralobular inflammation; assay type: in vivo; conditions: 30 mg/kg/day
Experimental: (§1) Animals were fed a Western diet (20% saturated fat and 0.2% cholesterol, Harlan Teklad TD88137) during 2 weeks in the first study, that involved the daily administration of Cpd 29 (at 30 mg/kg/day by oral gavage), and during 6 weeks in the second study, that involved the daily administration of Compound 1 of WO 2007147879 (Cpd1, at 30 mg/kg/day by oral gavage). Control animals were treated with vehicle only (Carboxymethlycellulose 1%+Tween-80 0.1%). Animals had access to food and water ad libitum.
(§2) At the end of the studies, the animals were weighed and sacrificed under anesthesia. Blood was collected from the retro-orbital sinus; plasma was obtained by centrifugation (4 000 rpm, at 4° C. for 15 min) and subsequently frozen and stored at −20° C. Tissues and livers were isolated and snap-frozen in liquid nitrogen and stored at −80° C. for subsequent analysis (gene expression and biochemistry) or fixed in 4% paraformaldehyde for histology.
(§3) Formalin-fixed liver tissue was processed, and 5-μm-thick paraffin sections were stained with Hematoxylin and Eosin. The histological analysis of stained liver sections was carried out in blind conditions to quantify liver steatosis and liver intralobular inflammation. Liver steatosis was scored from 0 to 3 as follows: 0 (very slightly affected), 1 (slightly affected), 2 (moderately affected), 3 (highly affected). Liver intralobular inflammation was also scored depending on the number of inflammatory foci counted by field of observation as follows: 0 (<1 focus/field), 1 (1 to 2 foci/field), 2 (2 to 4 foci/field) 3 (more than 4 foci/field).
(§4) Exemplary compounds of the General Formula (I) were tested in vivo in a high fat diet mice model. hApoE2 KI and hApoE2 KI/PPARalpha KO (“humanized” ApoE2 knock-in mice deficient for the mPPARalpha gene) were fed a Western diet and daily treated with the Cpd 29 at 30 mg/kg/day during 2 weeks. At the end of the protocol, liver steatosis and intra-lobular inflammation were evaluated in the control and treated mice by means of histological analysis and specific scores.

hApoE2 KI mice = hApoE2 KI mice on Western diet, 2 weeks, histological scores of liver steatosis and intralobular inflammation; assay type: in vivo; conditions: 30 mg/kg/day
Experimental: as §1, §2, §3, §4

[3] = test system: hApoE2 KI/PPARalpha KO mice; experiment: hApoE2 KI/PPARalpha KO mice on Western diet, hepatic gene expression by quantitative RT-PCR; assay type: in vivo; conditions: 30 mg/kg/day by gavage, 6 weeks
Experimental: The compounds of the General Formula (I) were tested in vivo in a high fat diet mice model. Dyslipidemic “humanized” hApoE2 KI deficient for PPARalpha were fed a Western diet and treated during 6 weeks. The compounds of interest, including the Compound 29 of WO 2004/005233 at 30 mg/kg/day and the Compound 1 of WO 2007/147879 at 30 mg/kg/day were orally administrated by gavage. At the end of the protocol, animals were sacrificed, livers were harvested and the hepatic expression of relevant genes implicated in the liver inflammation and the fibrosis processes were evaluated by quantitative RT-PCR. In parallel, liver triglycerides contents were evaluated (Panels A-D). Statistical analysis was performed as indicated for FIG. 1.
as §1, §2
Total RNA was isolated from frozen livers using the NucleoSpin® 96 RNA kit (Macherey Nagel), according to the manufacturer's instructions. Reverse transcription was performed on 1 μg of total RNA by action of 1 μl of MMLV-RT enzyme (Invitrogen) during 1 hour at 37° C. in a total volume of 30 μl. The reaction conditions were 1× buffer (Invitrogen), 1.5 mM DTT (Invitrogen), 0.18 mM dNTPs (Promega), 200 ng pdN6 (Amersham), 30U RNase inhibitor (Promega). Quantitative PCR was then carried out using the MyiQ Single-Color Real-Time PCR Detection System (Biorad). Briefly PCR reactions were performed in 96 well plates on 5 μl of diluted reverse transcription mix using the iQ SYBR Green Supermix kit. The reaction conditions were: 25 μl of volume reaction, 3 mM of MgCl2, and 0.5 μl of each reverse and forward primer solutions (10 pMol), Tm of 60° C.
The quantity of fluorescence emitted is directly proportional to the quantity of complementary DNA present at the start of the reaction and amplified during the PCR. The relative levels of expression were determined using the standard curve for each transcript. The results were then normalized in regard to the signals obtained with the 36B4 control (a reference transcript for hepatic gene expression). The induction factor, i.e. the ratio between the relative signal induced by the compound according to the invention and the average of the values relating to the control group, was then calculated for each sample. The higher this factor, the more the compound promotes target gene expression. The final result is depicted as the average of the induction values in each experimental group.
In another study, the liver-specific anti-inflammatory and anti-fibrotic properties effects of Cpd 29 and Compound 1 of WO 2007/147879 (Cpd 1) were evaluated in the hApoE2 KI/PPARalpha KO mice that were fed a Western diet and daily treated with the selected compounds during 6 weeks.

[4] = relative to the placebo group, p<0.01
[5] = hApoE2 KI/PPARalpha KO mice, Western diet

## 1-[4-methylthiophenyl]-3-[3,5-dimethyl-4-carboxydimethylmethyloxyphenyl]prop-2-en-1-one [Cpd 29]
[1]
  effect on Homocystein (cardiovascular risk factor): lack of effect
[1]; p<0.001
  reduction of Gamma Glutamyl transpeptidase level: 23%
[1]; p<0.01
  liver acute phase inflammation marker fibrinogen: reduction
  liver acute phase inflammation marker haptoglobin: reduction
  reduction of Alanine aminotransferase level: 13%
[1]; [4]
  increase in good cholesterol (HDL-C) level: 9%
  reduction of plasma triglycerides: 21%
[2]; [5]
  development of liver inflammation induced by the diet: inhibits
  development of liver steatosis induced by the diet: inhibits
[2]; share of group with score 0 (<1 focus/field), hApoE2 KI/PPARalpha KO
  Liver Inflammation (score) 0: 67%
[2]; share of group with score 0 (very slightly affected), hApoE2 KI/PPARalpha KO
  Liver Steatosis (score) 0: 0%
[2]; share of group with score 1 (1 to 2 foci/field), hApoE2 KI/PPARalpha KO
  Liver Inflammation (score) 1: 17%
[2]; share of group with score 1 (slightly affected), hApoE2 KI/PPARalpha KO
  Liver Steatosis (score) 1: 33%
[2]; share of group with score 2 (2 to 4 foci/field), hApoE2 KI/PPARalpha KO
  Liver Inflammation (score) 2: 17%
[2]; share of group with score 2 (moderately affected), hApoE2 KI/PPARalpha KO
  Liver Steatosis (score) 2: 50%
[2]; share of group with score 3 (highly affected), hApoE2 KI/PPARalpha KO
  Liver Steatosis (score) 3: 17%
[2]; share of group with score 3 (more than 4 foci/field), hApoE2 KI/PPARalpha KO
  Liver Inflammation (score) 3: 0%
hApoE2 KI mice; hApoE2 KI mice, Western diet
  development of liver inflammation induced by the diet: inhibits
  development of liver steatosis induced by the diet: inhibits
hApoE2 KI mice; share of group with score 0 (<1 focus/field), hApoE2 KI
  Liver Inflammation (score) 0: 100%
hApoE2 KI mice; share of group with score 0 (very slightly affected), hApoE2 KI
  Liver Steatosis (score) 0: 83%
hApoE2 KI mice; share of group with score 1 (1 to 2 foci/field), hApoE2 KI
  Liver Inflammation (score) 1: 0%
hApoE2 KI mice; share of group with score 1 (slightly affected), hApoE2 KI
  Liver Steatosis (score) 1: 17%
hApoE2 KI mice; share of group with score 2 (2 to 4 foci/field), hApoE2 KI
  Liver Inflammation (score) 2: 0%
hApoE2 KI mice; share of group with score 2 (moderately affected), hApoE2 KI
  Liver Steatosis (score) 2: 0%
hApoE2 KI mice; share of group with score 3 (highly affected), hApoE2 KI
  Liver Steatosis (score) 3: 0%
hApoE2 KI mice; share of group with score 3 (more than 4 foci/field), hApoE2 KI
  Liver Inflammation (score) 3: 0%
[3]; FIG. 4A
  liver expression of TNFα: inhibited
[3]; FIG. 4B
  liver expression of TGFβ: inhibited
[3]; FIG. 4C
  liver expression of collagen: inhibited
